Read-outs that look alike come from different tables or passages of the source.
What was measured:
[1] = system: HCV genotype 1b (Con1) replicon in HUH-7 cells; experiment: HCV replicon luciferase reporter assay, genotype 1b; type: cell-based; conditions: Hepatitis C virus, Huh-7, 72 h, 3 days incubation, read-out: LE_1b (EC50, range)
Outline: (§1)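 Replicon inhibition for both genotypes was measured as Renilla luciferase signal (EnduRen, 7.5 μM final, 2 h) after 3-day, 37° C exposure of replicon-bearing HUH-7 cells in 4% FCS DMEM, 0.5% DMSO. The 1b construct carries S1179I; the 1a H77 construct carries P1496L and S2204I. Twenty-point, 3-fold dilutions were fitted four-parametrically for EC50, and CC50 was taken from multiplexed Cell Titer-Blue.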

[2] = system: HCV genotype 1a (H77 strain) replicon in HUH-7 cells; experiment: HCV replicon luciferase reporter assay, genotype 1a; type: cell-based; conditions: Hepatitis C virus, Huh-7, 72 h, 3 days incubation, read-out: LE_1a (EC50, range)
Outline: as §1

[3] = HCV genotype 1b replicon luciferase
[4] = HCV genotype 1a replicon luciferase
[5] = HCV genotype 1b replicon luciferase assay, range class
[6] = HCV genotype 1a replicon luciferase assay, range class

Structure (SMILES) | EC50 [1, 3] | EC50 [2, 4] | EC50 [1, 5] | EC50 [2, 6]
COc1ccc2c(O[C@@H]3C[C@H]4C(=O)N[C@]5(C(=O)NS(=O)(=O)C6(C)CC6)C[C@H]5/C=C\CC[C@@H](C)C[C@@H](C)[C@H](NC(=O)OC(C)(C)C(F)(F)F)C(=O)N4C3)nc(-c3ccc(OC(C)C)nc3)cc2c1 [Compound 5225, 1,1,1-trifluoro-2-methylpropan-2-yl((2R,6S,7R,9R,13aS,14aR,16aS,Z)-2-((3-(6-isopropoxypyridin-3-yl)-6-methoxyisoquinolin-1-yl)oxy)-7,9-dimethyl-14a-(((1-methylcyclopropyl)sulfonyl)carbamoyl)-5,16-dioxo-1,2,3,5,6,7,8,9,10,11,13a,14,14a,15,16,16a-hexadecahydrocyclopropa[e]pyrrolo[1,2-a][1,4]diazacyclopentadecin-6-yl)carbamate] | < 5.46 nM | < 5.46 nM | – | –
[2H]C([2H])([2H])C(C)(OC(=O)N[C@@H]1C(=O)N2C[C@H](Oc3nccc4cc(OC(C)C)ccc34)C[C@H]2C(=O)N[C@]2(C(=O)NS(=O)(=O)C3(C)CC3)C[C@H]2/C=C\CC[C@H](C)C[C@H]1C)C([2H])([2H])[2H] [Compound 5164] | 4.82 to 103 nM | 4.82 to 103 nM | – | –
CCCOc1cc2c(Cl)cccc2c(O[C@@H]2C[C@H]3C(=O)N[C@]4(C(=O)NS(=O)(=O)C5(C)CC5)C[C@H]4/C=C\CC[C@H](C)C[C@@H](C)[C@H](NC(=O)OC4C[C@@H]5C[C@H]5C4)C(=O)N3C2)n1 [Compound 1087, (1S,5S)-bicyclo[3.1.0]hexan-3-yl((2R,6S,7R,9S,13aS,14aR,16aS,Z)-2-((5-chloro-3-propoxyisoquinolin-1-yl)oxy)-7,9-dimethyl-14a-(((1-methylcyclopropyl)sulfonyl)carbamoyl)-5,16-dioxo-1,2,3,5,6,7,8,9,10,11,13a,14,14a,15,16,16a-hexadecahydrocyclopropa[e]pyrrolo[1,2-a][1,4]diazacyclopentadecin-6-yl)carbamate] | – | – | < 5.46 nM | 4.82 to 103 nM
CCOc1cnc(O[C@@H]2C[C@H]3C(=O)N[C@]4(C(=O)NS(=O)(=O)C5(C)CC5)C[C@H]4/C=C\CC[C@@H](C)C[C@@H](CC)[C@H](NC(=O)OC(C)(C)C(F)F)C(=O)N3C2)c2ccccc12 [Compound 5531, 1,1-difluoro-2-methylpropan-2-yl((2R,6S,7R,9R,13aS,14aR,16aS,Z)-2-((4-ethoxyisoquinolin-1-yl)oxy)-7-ethyl-9-methyl-14a-(((1-methylcyclopropyl)sulfonyl)carbamoyl)-5,16-dioxo-1,2,3,5,6,7,8,9,10,11,13a,14,14a,15,16,16a-hexadecahydrocyclopropa[e]pyrrolo[1,2-a][1,4]diazacyclopentadecin-6-yl)carbamate] | 0.51 to 1 nM | 1.01 to 5 nM | – | –
COc1ccc2c(O[C@@H]3C[C@H]4C(=O)N[C@]5(C(=O)NS(=O)(=O)C6(CF)CC6)C[C@H]5/C=C\CC[C@@H](C)C[C@@H](C)[C@H](NC(=O)OC5COC5)C(=O)N4C3)nc(OC)cc2c1 [Compound 1129, oxetan-3-yl ((2R,6S,7R,9R,13aS,14aR,16aS,Z)-2-((3,6-dimethoxyisoquinolin-1-yl)oxy)-14a-(((1-(fluoromethyl)cyclopropyl)sulfonyl)carbamoyl)-7,9-dimethyl-5,16-dioxo-1,2,3,5,6,7,8,9,10,11,13a,14,14a,15,16,16a-hexadecahydrocyclopropa[e]pyrrolo[1,2-a][1,4]diazacyclopentadecin-6-yl)carbamate] | – | – | < 5.46 nM | < 5.46 nM
[2H]C([2H])([2H])C(C)(OC(=O)N[C@@H]1C(=O)N2C[C@H](Oc3nccc4c5c(ccc34)N(C)CCO5)C[C@H]2C(=O)N[C@]2(C(=O)NS(=O)(=O)C3CC3)C[C@H]2/C=C\CC[C@@H](C)C[C@H]1C)C([2H])([2H])[2H] [Compound 5286, 1,1,1,3,3,3-hexadeutero-2-methylpropan-2-yl((2R,6S,7R,9R,13aS,14aR,16aS,Z)-14a-((cyclopropylsulfonyl)carbamoyl)-7,9-dimethyl-2-((4-methyl-3,4-dihydro-2H-[1,4]oxazino[2,3-f]isoquinolin-7-yl)oxy)-5,16-dioxo-1,2,3,5,6,7,8,9,10,11,13a,14,14a,15,16,16a-hexadecahydrocyclopropa[e]pyrrolo[1,2-a][1,4]diazacyclopentadecin-6-yl)carbamate] | < 5.46 nM | < 5.46 nM | – | –
CC[C@@H]1C[C@H](C)CC/C=C\[C@@H]2C[C@@]2(C(=O)NS(=O)(=O)C2(CF)CC2)NC(=O)[C@@H]2C[C@@H](Oc3nc4c(c5cc(OC)ccc35)CCCO4)CN2C(=O)[C@H]1NC(=O)OC(C)(C)C(C)(F)F [Compound 6088, 3,3-difluoro-2-methylbutan-2-yl((2R,6S,7R,9R,13aS,14aR,16aS,Z)-7-ethyl-14a-(((1-(fluoromethyl)cyclopropyl)sulfonyl)carbamoyl)-2-((9-methoxy-2,3-dihydro-1H-pyrano[2,3-c]isoquinolin-6-yl)oxy)-9-methyl-5,16-dioxo-1,2,3,5,6,7,8,9,10,11,13a,14,14a,15,16,16a-hexadecahydrocyclopropa[e]pyrrolo[1,2-a][1,4]diazacyclopentadecin-6-yl)carbamate] | 5.01 to 35 nM | 5.01 to 35 nM | – | –
COc1ccc2c(O[C@@H]3C[C@H]4C(=O)N[C@]5(C(=O)NS(=O)(=O)C6CC6)C[C@H]5/C=C\CC[C@H](C)C[C@@H](C)[C@H](NC(=O)OC(C)(C)C(F)(F)F)C(=O)N4C3)nc(-c3ccc(OC(C)C)nc3)cc2c1 [Compound 5214, 1,1,1-trifluoro-2-methylpropan-2-yl((2R,6S,7R,9S,13aS,14aR,16aS,Z)-14a-((cyclopropylsulfonyl)carbamoyl)-2-((3-(6-isopropoxypyridin-3-yl)-6-methoxyisoquinolin-1-yl)oxy)-7,9-dimethyl-5,16-dioxo-1,2,3,5,6,7,8,9,10,11,13a,14,14a,15,16,16a-hexadecahydrocyclopropa[e]pyrrolo[1,2-a][1,4]diazacyclopentadecin-6-yl)carbamate] | < 5.46 nM | 4.82 to 103 nM | – | –
CC(C)Oc1cc2ccccc2c(O[C@@H]2C[C@H]3C(=O)N[C@]4(C(=O)NS(=O)(=O)C5(C)CC5)C[C@H]4/C=C\CC[C@@H](C)C[C@@H](C)[C@H](NC(=O)OC(C)(C)C(F)(F)F)C(=O)N3C2)n1 [Compound 6104, 1,1,1-trifluoro-2-methylpropan-2-yl((2R,6S,7R,9R,13aS,14aR,16aS,Z)-2-((3-isopropoxyisoquinolin-1-yl)oxy)-7,9-dimethyl-14a-(((1-methylcyclopropyl)sulfonyl)carbamoyl)-5,16-dioxo-1,2,3,5,6,7,8,9,10,11,13a,14,14a,15,16,16a-hexadecahydrocyclopropa[e]pyrrolo[1,2-a][1,4]diazacyclopentadecin-6-yl)carbamate] | 0.51 to 1 nM | 1.01 to 5 nM | – | –
CC(C)Oc1cnc(O[C@@H]2C[C@H]3C(=O)N[C@]4(C(=O)NS(=O)(=O)C5CC5)C[C@H]4/C=C\CC[C@@H](C)C[C@@H](C)[C@H](NC(=O)OC(C)(C)C(F)(F)F)C(=O)N3C2)c2ccccc12 [Compound 20, 1,1,1-trifluoro-2-methylpropan-2-yl((2R,6S,7R,9R,13aS,14aR,16aS,Z)-14a-((cyclopropylsulfonyl)carbamoyl)-2-((4-isopropoxyisoquinolin-1-yl)oxy)-7,9-dimethyl-5,16-dioxo-1,2,3,5,6,7,8,9,10,11,13a,14,14a,15,16,16a-hexadecahydrocyclopropa[e]pyrrolo[1,2-a][1,4]diazacyclopentadecin-6-yl)carbamate] | – | – | < 5.46 nM | < 5.46 nM
